Experimental data: the supplement of paper PMC13380429
± gives the standard deviation of the averaged measurements.

Legend:
Details in all cases: 72 h
Vero E6 [1] = assay: relative viability EC50 (midpoint between 100% and the lowest measured viability); higher = less toxic
HepG2 [2] = assay: as above
Calu-3 [3] = assay: as above
Caco-2 [4] = assay: as above
U2OS [5] = assay: as above
Vero E6 [6] = assay: drug sensitivity score (DSS) for viability; higher = more toxic; extreme values may be limits of the assay
HepG2 [7] = assay: as above
Calu-3 [8] = assay: as above
Caco-2 [9] = assay: as above
U2OS [10] = assay: as above
Vero E6 [11] = assay: cell viability relative to DMSO; higher = less toxic
HepG2 [12] = assay: as above
Calu-3 [13] = assay: as above
Caco-2 [14] = assay: as above
U2OS [15] = assay: as above

SMILES	relative viability EC50 (Vero E6 [1]) [µM]	relative viability EC50 (HepG2 [2]) [µM]	relative viability EC50 (Calu-3 [3]) [µM]	relative viability EC50 (Caco-2 [4]) [µM]	relative viability EC50 (U2OS [5]) [µM]	drug sensitivity score (Vero E6 [6])	drug sensitivity score (HepG2 [7])	drug sensitivity score (Calu-3 [8])	drug sensitivity score (Caco-2 [9])	drug sensitivity score (U2OS [10])	cell viability (Vero E6 [11]; 1 nM) [%]	cell viability (Vero E6 [11]; 10 nM) [%]	cell viability (Vero E6 [11]; 100 nM) [%]	cell viability (Vero E6 [11]; 1000 nM) [%]	cell viability (Vero E6 [11]; 10000 nM) [%]	cell viability (HepG2 [12]; 1 nM) [%]	cell viability (HepG2 [12]; 10 nM) [%]	cell viability (HepG2 [12]; 100 nM) [%]	cell viability (HepG2 [12]; 1000 nM) [%]	cell viability (HepG2 [12]; 10000 nM) [%]	cell viability (Calu-3 [13]; 1 nM) [%]	cell viability (Calu-3 [13]; 10 nM) [%]	cell viability (Calu-3 [13]; 100 nM) [%]	cell viability (Calu-3 [13]; 1000 nM) [%]	cell viability (Calu-3 [13]; 10000 nM) [%]	cell viability (Caco-2 [14]; 1 nM) [%]	cell viability (Caco-2 [14]; 10 nM) [%]	cell viability (Caco-2 [14]; 100 nM) [%]	cell viability (Caco-2 [14]; 1000 nM) [%]	cell viability (Caco-2 [14]; 10000 nM) [%]	cell viability (U2OS [15]; 1 nM) [%]	cell viability (U2OS [15]; 10 nM) [%]	cell viability (U2OS [15]; 100 nM) [%]	cell viability (U2OS [15]; 1000 nM) [%]	cell viability (U2OS [15]; 10000 nM) [%]
CC(=O)O[C@]1(C(C)=O)CC[C@H]2[C@@H]3C[C@H](C)C4=CC(=O)CC[C@]4(C)[C@H]3CC[C@@]21C [medroxyprogesterone-acetate]	> 10	> 10	> 10	> 10	> 10	0	0	0	0	0	96.6	97.9	100	98.3	98.2	110	103	99.1	95.1	97.3	99.8	106	95.6	101	103	92.6	103	94.5	101	95.8	97.1	99	97	96.2	96.5
CN(C)CC[C@@H](c1ccc(Cl)cc1)c1ccccn1 [chlorphenamine]	> 10	> 10	> 10	> 10	> 10	0	0	0	0	0	103 ± 6.3	103 ± 6.7	99.1 ± 1.3	95.4 ± 3.7	96.8 ± 3.2	102 ± 2	113.5 ± 0.71	96.4 ± 2.8	94.7 ± 2.3	99.2 ± 10	97.8 ± 1.2	95.2 ± 1.8	93.3 ± 3.8	97.7 ± 3.3	96.4 ± 14	102 ± 3.8	100 ± 2.9	102	98.8 ± 3.8	93.05 ± 0.35	98 ± 3.7	97.8 ± 0.71	94.7 ± 1.7	95.2 ± 2.4	93 ± 2.6
O=C(Cn1ccnc1[N+](=O)[O-])NCCO [etanidazole]	> 10	> 10	> 10	> 10	> 10	0	0	0	0	0	103	104	106	101	97.7	98.7	106	92.3	101	88.8	98.8	92.4	94	98.1	107	100	94.1	95.9	91.5	92.7	101	97.1	102	99.1	102
N=C(N)Nc1ccc(C(=O)Oc2ccc3cc(C(=N)N)ccc3c2)cc1 [nafamostat]	> 10	> 10	> 10	> 10	> 10	0	0.5	0	0	0	99.7	103	104	102	97	96.5	108	104	108	77.1	98.3	103	107	103	99.4	101	100	98.8	92.4	107	102	99.4	102	97.6	102
CN(C)Cc1ccc(-c2nc3cccc4c3n2CCNC4=O)cc1	> 10	> 10	> 10	> 10	> 10	0	1.4	0	0	0	104	95.9	103	96	101	109	93.3	97.5	95.9	77.1	85.7	90.3	80.8	73.7	99.7	92.8	117	104	100	98.2	93.6	98	94.6	100	99.8
CC(=O)Oc1ccccc1C(=O)O [aspirin]	> 10	> 10	> 10	> 10	> 10	0	0	0	3.8	0	90.7	96.7	90	96.2	108	95.2	100	93.8	104	109	102	90.1	94.1	92.6	101	92.4	89.3	81	80	89.7	96.5	93.5	104	98.3	103
O=C(c1cc(C2CC2)on1)N(C1CCCCC1)C1CCCCC1 [CYM-5541]	> 10	> 10	> 10	> 10	> 10	0	0	0	0	0	106	103	99.5	95.3	99.6	98.6	93.9	98.4	92.3	89.6	102	98.1	97.2	96.8	99	94.9	97.8	97.5	99.4	90	98	97.8	96.3	97.2	94.4
CCN(CC)CCCC(C)Nc1nc(C)cc(Nc2ccc3nc(C)cc(N)c3c2)n1 (stereo not given)	> 10	> 10	> 10	> 10	> 10	0	1.2	0	0	0	97.7	102	104	97.9	97.6	96	99.9	100	95.6	79.9	104	92	95.4	92.5	110	102	97.2	99.5	95	105	106	97.6	100	97.8	102
CC(=O)Nc1ccc(O)cc1 [paracetamol]	> 10	> 10	> 10	> 10	> 10	0	0.6	0	0	0	97.9	95.4	102	92.5	102	99.5	104	88.8	94.3	92.5	94.7	96.6	97.2	99.8	99	91.7	103	94.7	98.2	98.8	99.9	101	95.4	102	93.7
Oc1c(Br)cc(Br)c2cccnc12 [broxyquinoline]	> 10	> 10	> 10	> 10	> 10	0	0	0	0	0	102	94.1	102	110	99	84.2	108	110	100	87.6	108	82.2	90.7	97.6	99	89.4	92.5	93.2	98.9	112	96	98.7	101	98.2	94.6
CCCCc1ccc(C(N)=O)nc1 [bupicomide]	> 10	> 10	> 10	> 10	> 10	0	0	0	0	0	96.6	99.9	96	100	107	93.8	103	92.6	116	114	97.9	84.9	103	84.7	99.3	94.6	81.3	94	90.8	88	99.9	94.5	103	93.6	102
C[N+](C)(C)CCCCCCCCCC[N+](C)(C)C [decamethonium]	> 10	> 10	> 10	> 10	> 10	0	0	0	0	0	101	98	102	95.7	99.7	102	99.2	96.2	93.2	104	88.3	114	95.6	108	89.3	98.1	93.1	99.1	99.9	97.4	98.3	99.8	94	97.3	95.5
Cc1ccccc1-n1c(CF)nc2ccc(N)cc2c1=O [afloqualone]	> 10	> 10	> 10	> 10	> 10	0	0	0	0	0	105	98.2	100	102	92.4	100	94	100	83.3	93.7	98.1	96.8	101	108	109	98	102	104	101	110	98.3	97.9	102	98.6	102
CCOC(=O)C1=C(C)NC(C)=C(C(=O)OCC)C1c1ccccc1/C=C/C(=O)OC(C)(C)C [lacidipine]	> 10	> 10	> 10	> 10	> 10	0	0	0	2.5	0	92	99.4	89.7	99.6	106	96.2	102	96.8	114	91.9	97	89.8	106	93	91	97.4	91	90.2	84.7	79	96.6	95.2	98.5	92.1	97.5
Oc1ccnc2cc(Cl)ccc12 [chloroxoquinoline]	> 10	> 10	> 10	> 10	> 10	0	0	0	0	0	102	90.9	101	96.1	99.5	104	96.3	94.6	92.4	105	87.2	95.4	92.9	105	92.2	98.7	96.3	94.7	90.8	89.9	98.5	99.7	95.5	103	95.5
CN1CC(=O)NC1=N [creatinine]	> 10	> 10	> 10	> 10	> 10	0	0	0.2	0	0	100	97	93.9	96.1	98.7	97.4	97.3	104	90.9	103	97.2	99.7	85	95.7	87.5	95.8	96.6	96.9	102	99.1	100	99.5	97.3	98.4	95.5
O=C1CCC[C@@H]2[C@H]3C[C@@H](CN12)[C@@H]1CCCCN1C3 [lupanine]	> 10	> 10	> 10	> 10	> 10	0	0	0	1.8	0	92.1	97.9	93.8	98.1	95.7	99.4	95.7	93	110	93.7	87.2	96.8	99.5	95.5	94.4	103	92.8	90.4	87.2	91.4	101	96.2	98.6	94	100
O=C(O)CCc1c(C(=O)O)[nH]c2cc(Cl)cc(Cl)c12	> 10	> 10	> 10	> 10	> 10	0	0	0	0	0	99.9	102	102	94.3	102	102	92.5	94.2	107	105	91.6	96.3	93.2	97.5	106	92.8	104	90.9	102	99.4	96.2	103	95.9	99.7	97.5
CCN(CC)c1ccc(/C=N/NC(=O)c2ccc(O)cc2)cc1 [DY131]	> 10	> 10	> 10	> 10	> 10	0	0.2	0	0	0	107	98.3	101	102	95.1	102	105	95.9	105	83.4	95.4	91.5	99.8	97.8	95.3	94.3	96.4	98.4	95.4	98.2	99.6	97.5	101	95.4	97.6
CC(=O)N[C@H](Cc1ccc2ccccc2c1)C(=O)N[C@H](Cc1ccc(Cl)cc1)C(=O)N[C@H](Cc1cccnc1)C(=O)N[C@@H](CO)C(=O)N[C@@H](Cc1ccc(NC(=O)[C@@H]2CC(=O)NC(=O)N2)cc1)C(=O)N[C@H](Cc1ccc(NC(N)=O)cc1)C(=O)N[C@@H](CC(C)C)C(=O)N[C@@H](CCCCNC(C)C)C(=O)N1CCC[C@H]1C(=O)N[C@H](C)C(N)=O [degarelix]	> 10	> 10	> 10	> 10	> 10	0	0	0	0	0	95.6	93.8	92	89.8	101	103	80.7	112	91	110	103	104	91.7	91.9	96.6	90.3	92.8	99.9	90.4	99.6	97.1	97	98.7	99.9	101
CC(C)C(=O)c1c(C(C)C)nn2ccccc12 [ibudilast]	> 10	> 10	> 10	> 10	> 10	0	0	0	0	0	96.8	97.4	98.9	94.7	103	94.5	101	109	88.8	99.2	95.7	94.1	93	104	107	91.2	89.9	93.3	102	107	94.6	102	97.4	104	104
Clc1ccc(Nc2nnc(Cc3ccncc3)c3ccccc23)cc1 [vatalanib]	> 10	> 10	> 10	> 10	> 10	0.4	0.3	0	0.7	0	95.9	93.8	89	88.8	90	101	92.4	107	102	83	95.9	89.8	97.5	102	90.3	98.6	99.3	102	94.7	84.5	103	100	100	101	92.7
